How the values were obtained:
[1] = Gravimetric vapour sorption (GVS) analysis, hygroscopicity; type: physicochemical; details: GVS at 25° C.; for Hygroscopicity: mass change: between 40% and 80% relative humidity; for Hygroscopicity: sorption of moisture mass/mass: humidity program 40-0-95-0-95-40% RH, maximum sorption with hysteresis
Description: Gravimetric Vapour Sorption (GVS) Analysis
The sample was allowed to equilibrate at 40% RH before starting a pre-defined humidity program (40-0-95-0-95-40% RH, steps of 5% ΔRH and with a maximal equilibration time of 24 hours per step were applied. About 20 to 30 mg of each sample was used. The hygroscopic classification is done according to the European Pharmacopeia Technical Guide (1999, page 86), e.g., slightly hygroscopic: increase in mass is less than 2% and equal to or greater than 0.2% mass/mass; hygroscopic: increase in mass is less than 15% and equal to or greater than 2% mass/mass. The mass change between 40% relative humidity and 80% relative humidity in the first adsorption scan is considered.

[2] = Measurement of brain and systemic concentration after oral administration; type: in vivo; details: 3 h after oral administration (100 mg/kg), n=3, male wistar rats
Description: Measurement of Brain and Systemic Concentration after Oral Administration:
Samples are collected in the same animal at the same time point (+/−5 min). Blood is sampled from the vena cava caudalis into containers with EDTA as anticoagulant and centrifuged to yield plasma. Brain is sampled after cardiac perfusion of 10 mL NaCl 0.9% and homogenized into one volume of cold phosphate buffer (pH 7.4). All samples are extracted with MeOH and analyzed by LC-MS/MS. Concentrations are determined with the help of calibration curves.

Wistar rats = assay: Sedative effects: EEG, EMG and behavioural indices of alertness recorded by radiotelemetry; type: in vivo; details: 30 mg/kg po, effects analyzed over 6 hours
Description: Sedative Effects: EEG, EMG and Behavioural Indices of Alertness Recorded by Radiotelemetry In Vivo in Wistar Rats.
Electroencephalography (EEG) and Electromyography (EMG) signals were measured by telemetry using TL11M2-F20-EET miniature radiotelemetric implants (Data Science Int.) with two pairs of differential leads.
Surgical implantation was performed under general anesthesia with Ketamin/Xylazin, for cranial placement of one differential pair of EEG electrodes and one pair of EMG leads inserted in either side of the muscles of the neck. After surgery, rats recovered in a thermoregulated chamber and received analgesic treatment with subcutaneous buprenorphine twice a day for 2 d. They were then housed individually and allowed to recover for a minimum of 2 weeks. Thereafter, rats—in their home cage—were placed in a ventilated sound-attenuating box, on a 12-h light/12-h dark cycle, for acclimatization before continuous EEG/EMG recordings started. The telemetric technology that we used in this study allows accurate and stress-free acquisition of biosignals in rats placed in their familiar home cage environment, with no recording leads restricting their movements. Variables analyzed included four different stages of vigilance and sleep, spontaneous activity in the home cage and body temperature. Sleep and wake stages were evaluated using a rodent scoring software (Somnologica Science) directly processing electrical biosignals on 10 s contiguous epochs. The scoring is based on frequency estimation for EEG and amplitude discrimination for EMG and locomotor activity. Using these measurements, the software determines the probability that all components within each epoch best represent active waking (AW), quiet waking (QW), non-REM-sleep (NREM) or REM-sleep (REM). The percentage of total time spent in AW, QW, NREM- and REM-sleep was calculated per 12 h light or dark period. The latency to the onset of the first significant NREM- and REM-sleep episodes and the frequency and duration of those episodes were also calculated. […] All variables were subsequently recorded for 12 h following administration of the orexin receptor antagonist.

COc1ccc(-n2nccn2)c(C(=O)N2CCC[C@@]2(C)c2nc3c(C)c(Cl)ccc3[nH]2)c1 [COMPOUND in crystalline form 2, (S)-(2-(6-chloro-7-methyl-1H-benzo[d]imidazol-2-yl)-2-methylpyrrolidin-1-yl)(5-methoxy-2-(2H-1,2,3-triazol-2-yl)phenyl)methanone]
Hygroscopicity: mass change ([1]; first adsorption scan): about 0.7%)
Hygroscopicity: sorption of moisture mass/mass [1]: ≤ 1.1% moisture mass/mass.

COc1ccc(-n2nccn2)c(C(=O)N2CCC[C@@]2(C)c2nc3c(C)c(Cl)ccc3[nH]2)c1 [COMPOUND in crystalline form 1, (S)-(2-(6-chloro-7-methyl-1H-benzo[d]imidazol-2-yl)-2-methylpyrrolidin-1-yl)(5-methoxy-2-(2H-1,2,3-triazol-2-yl)phenyl)methanone]
Hygroscopicity (hygroscopic classification) ([1]; European Pharmacopeia Technical Guide classification, 40% to 80% RH, first adsorption scan): Non hygroscopic (mass change smaller
Hygroscopicity: mass change ([1]; first adsorption scan): then 0.1%)

COc1ccc(-n2nccn2)c(C(=O)N2CCC[C@@]2(C)c2nc3c(C)c(Cl)ccc3[nH]2)c1 [COMPOUND as free base in amorphous form, [(S)-2-(5-chloro-4-methyl-1H-benzoimidazol-2-yl)-2-methyl-pyrrolidin-1-yl]-(5-methoxy-2-[1,2,3]triazol-2-yl-phenyl)-methanone]
Hygroscopicity: mass change ([1]; first adsorption scan): about 0.7%), Hysteresis and sorption
Hygroscopicity: sorption of moisture mass/mass [1]: of up to 2.7% moisture mass/mass.

COc1ccc(-n2nccn2)c(C(=O)N2CCC[C@@]2(C)c2nc3c(C)c(Cl)ccc3[nH]2)c1 [COMPOUND, (S)-(2-(6-chloro-7-methyl-1H-benzo[d]imidazol-2-yl)-2-methylpyrrolidin-1-yl)(5-methoxy-2-(2H-1,2,3-triazol-2-yl)phenyl)methanone]
concentration in brain [B] [2]: 1808 ng/g
concentration in plasma [P] [2]: 1280 ng/mL
effect on NREM sleep compared to vehicle controls (Wistar rats): +27%
effect on REM sleep compared to vehicle controls (Wistar rats): +53%
effect on active wake compared to vehicle controls (Wistar rats): −24%
effect on home cage activity compared to vehicle controls (Wistar rats): −31%

— patent US9914720B2, “Crystalline form of (S)-(2-(6-chloro-7-methyl-1H-benzo[D]imidazol-2-yl)-2-methylpyrrolidin-1-yl)(5-methoxy-2-(2H-1,2,3-triazol-2-yl)phenyl)methanone and its use as orexin receptor antagonists” (IDORSIA PHARMACEUTICALS LTD, priority 2013, dated 2018)
